According to US12582640B2, “Treatment of lower respiratory tract infection with tradipitant” (Vanda Pharmaceuticals Inc., priority 2020, dated 2026):

Test system: severe or critical COVID-19 infection
Assay: Randomized, double-blind, placebo-controlled study of tradipitant in hospitalized patients with COVID-19 pneumonia (interim analysis, ITT population)
Format: in vivo, human
Design: Mortality KM estimate: concentration or dose not given beside the values
Conditions: for Mortality hazard ratio (95% CI) / Hazard ratio (95% CI), responder as improvement of 2 or more points / Odds ratio (95% CI), ordinal score at Day 7 / Odds ratio (95% CI), ordinal score at Day 28: tradipitant vs placebo; for Mortality hazard ratio (95% CI) / Hazard ratio (95% CI), responder as improvement of 2 or more points: Cox model; for Odds ratio (95% CI), ordinal score at Day 7 / Odds ratio (95% CI), ordinal score at Day 28: proportional odds model
Description: A randomized, double-blind, placebo-controlled study investigates the efficacy of tradipitant in the treatment of inflammatory lung injury and pneumonia associated with severe or critical COVID-19 infection, and improvement of clinical outcomes associated with severe or critical COVID-19 infection. Such improvements in clinical outcomes include reduction in long term pulmonary function deficits and pulmonary fibrosis.
Methods: Prospective participants attend a screening visit on study day −1 to 0 to assess the prospective patient's eligibility to participate. All enrolled patients are asked to undertake an initial physical examination and must satisfy inclusion and exclusion criteria before being enrolled into the study. A total sample size of 300 patients (150 per arm) provides approximately 93% power to detect a 20% difference of normalization in fever and oxygen saturation, assuming 50% and 70% normalization rates in placebo and tradipitant treatment groups respectively, based on a two-sided Fisher's Exact Test at a 5% significance level.
Inclusion criteria include: adults aged 18-90; confirmed laboratory COVID-19 infection by RT-PCR; confirmed pneumonia by chest radiograph or computed tomography; fever defined as temperature ≥36.6° C. armpit, ≥37.2° C. oral, or ≥37.8° C. rectal; and oxygen saturation of less than 92% on room air OR on mechanical ventilation OR increased work of breathing (WOB) on exam without respiratory support OR respiratory rate greater than 20 per minute. Exclusion criteria include: recent use of illicit drugs or alcohol abuse; known allergy to tradipitant or other neurokinin-1 antagonists; pregnancy; known HIV, HBV, or HCV infection; malignant tumor, other serious systemic diseases; and inability to provide informed consent or to have an authorized relative or designated person provide informed consent, or to comply with the protocol requirements.
Patients who meet the inclusion-exclusion criteria are randomized 1:1 to treatment with either 85 mg tradipitant twice daily (bid) per os (PO, i.e. orally) or matching placebo under double-blind conditions, in addition to standard of care for COVID-19 infection according to protocol at the treating hospital. In both arms, treatment with study medication continues for 14 days or until discharge from the hospital. In both tradipitant treatment and placebo study arms, patients are given one capsule of study medication to be taken orally every day in the morning prior to or at 9:00 am and one capsule of study medication to be taken orally every day in the evening approximately 12 hours later (±1 hour). Patients in the tradipitant treatment arm receive capsules containing 85 mg tradipitant, as well as spray-dried lactose monohydrate, microcrystalline cellulose (Avicel PH102 and PH200), povidone, croscarmellose sodium, sodium lauryl sulfate, and magnesium stearate as excipients. The tradipitant capsules are white opaque, hard gelatin capsules. Placebo capsules are provided in size and appearance identical to those containing tradipitant.
For patients requiring administration via nasogastric tube, the following procedure is used: 1) empty contents of one 85 mg capsule in a glass mortar and grind using a pestle until all granules are thoroughly crushed; 2) add 10 mL of water while continuing to grind to obtain a uniform dispersion; 3) draw up entire dispersion into a suitable syringe; 4) connect syringe tip to nasogastric tube and push entire syringe contents; and 5) rinse mortar and pestle with 5 mL of water and repeat steps 3) and 4). The crushing procedure results in the preparation of a uniform dispersion in water, which can then be administered through a nasogastric tube without clogging.
Patient assessments are performed in accordance with the schedule of evaluations detailed in Table 1 below.
Mortality is assessed as the proportion of participants with in-hospital mortality, and is evaluated per treatment arm. […]

[1] = Day 7, baseline ordinal score 3
[2] = Day 7, baseline ordinal score 4
[3] = Day 28, baseline ordinal score 2
[4] = Day 28, baseline ordinal score 3
[5] = Day 28, baseline ordinal score 4
[6] = ITT overall, >1 benefit for tradipitant
[7] = baseline ordinal score 2 (N = 4)
[8] = baseline ordinal score 3 (N = 13)
[9] = baseline ordinal score 4 (N = 9)
[10] = tradipitant arm, 85 mg bid PO plus standard of care, interim analysis

Question: Which “Mortality KM estimate” value (Day 7, ITT overall) does the source give for `O=C(c1ccccc1Cl)c1cccnc1-c1nnn(Cc2cc(C(F)(F)F)cc(C(F)(F)F)c2)c1-c1ccncc1` [Tradipitant, {2-[1-(3,5-bistrifluoromethylbenzyl)-5-pyridin-4-yl-1H-[1,2,3]triazol-4-yl]-pyridin-3-yl}-(2-chlorophenyl)-methanone] here?
Answer: Its value is 9.8%.

Question: What about the “No. of responders (improvement of 2 or more points)” value (“No. of responders” for short) (Day 7, ITT overall (N = 28)) of the same compound?
Answer: Its value is 13.

Question: What about the “Mortality hazard ratio (95% CI)” value (Day 7, ITT overall, <1 benefit for tradipitant) of the same compound?
Answer: The value was 2.65.

Question: And the “Mortality KM estimate” value (Day 7, baseline ordinal score 2)?
Answer: Its value is 25.0%.

Question: And the “No. of responders” value (Day 7, baseline ordinal score 2 (N = 4))?
Answer: The value was 3.

Question: What about the “Mortality KM estimate” value [1] of the same compound?
Answer: Its value is 0.0%.

Question: What about the “No. of responders” value (Day 7, baseline ordinal score 3 (N = 13)) of the same compound?
Answer: Its value is 2.

Question: What about the “Hazard ratio (95% CI), responder as improvement of 2 or more points” value (shortened to “Hazard ratio (95% CI), responder”) [1] of the same compound?
Answer: Its value is 2.19.

Question: What about the “Mortality KM estimate” value [2] of the same compound?
Answer: Its value is 25.0%.

Question: And the “No. of responders” value (Day 7, baseline ordinal score 4 (N = 9))?
Answer: Its value is 6.

Question: And the “Hazard ratio (95% CI), responder” value [2]?
Answer: Its value is 2.23.

Question: And the “Mortality hazard ratio (95% CI)” value [2]?
Answer: Its value is 3.14.

Question: What about the “Mortality KM estimate” value (Day 28, ITT overall) of the same compound?
Answer: Its value is 20.4%.

Question: What about the “No. of responders” value (Day 28, ITT overall (N = 28)) of the same compound?
Answer: Its value is 16.

Question: And the “Mortality hazard ratio (95% CI)” value (Day 28, ITT overall, <1 benefit for tradipitant)?
Answer: Its value is 1.03.

Question: What about the “Mortality KM estimate” value [3] of the same compound?
Answer: The value was 50.0%.

Question: What about the “No. of responders” value (Day 28, baseline ordinal score 2 (N = 4)) of the same compound?
Answer: The value was 3.

Question: What about the “Mortality hazard ratio (95% CI)” value [3] of the same compound?
Answer: The value was 1.84.

Question: And the “Mortality KM estimate” value [4]?
Answer: Its value is 9.1%.

Question: And the “No. of responders” value (Day 28, baseline ordinal score 3 (N = 13))?
Answer: The value was 4.

Question: And the “Hazard ratio (95% CI), responder” value [4]?
Answer: The value was 1.08.

Question: And the “Mortality hazard ratio (95% CI)” value [4]?
Answer: Its value is 0.95.

Question: What about the “Mortality KM estimate” value [5] of the same compound?
Answer: Its value is 25.0%.

Question: What about the “No. of responders” value (Day 28, baseline ordinal score 4 (N = 9)) of the same compound?
Answer: Its value is 7.

Question: And the “Hazard ratio (95% CI), responder” value [5]?
Answer: Its value is 1.59.

Question: What about the “Mortality hazard ratio (95% CI)” value [5] of the same compound?
Answer: Its value is 1.24.

Question: And the “Median time to responder (95% CI)” value (Day 28 analysis, ITT overall (N = 28), listed as tradipitant)?
Answer: The value was 10 days.

Question: And the “No. of deaths by day 7” value (ITT overall (N = 28))?
Answer: The value was 2.

Question: What about the “No. of deaths by day 28” value (ITT overall (N = 28)) of the same compound?
Answer: Its value is 4.

Question: And the “Odds ratio (95% CI), ordinal score at Day 7” value (“Odds ratio (95% CI) … at Day 7” below) [6]?
Answer: Its value is 1.05.

Question: And the “Odds ratio (95% CI), ordinal score at Day 28” value [6]?
Answer: Its value is 1.01.

Question: What about the “No. of deaths by day 7” value [7] of the same compound?
Answer: Its value is 1.

Question: What about the “No. of deaths by day 28” value [7] of the same compound?
Answer: The value was 2.

Question: And the “Odds ratio (95% CI) … at Day 7” value (baseline ordinal score 2)?
Answer: The value was 0.43.

Question: And the “Odds ratio (95% CI), ordinal score at Day 28” value (baseline ordinal score 2)?
Answer: The value was 0.43.

Question: What about the “No. of deaths by day 7” value [8] of the same compound?
Answer: Its value is 0.

Question: And the “No. of deaths by day 28” value [8]?
Answer: Its value is 1.

Question: And the “Odds ratio (95% CI) … at Day 7” value (baseline ordinal score 3)?
Answer: The value was 2.69.

Question: And the “Odds ratio (95% CI), ordinal score at Day 28” value (baseline ordinal score 3)?
Answer: Its value is 2.21.

Question: And the “No. of deaths by day 7” value [9]?
Answer: The value was 1.

Question: And the “No. of deaths by day 28” value [9]?
Answer: Its value is 1.

Question: What about the “Odds ratio (95% CI) … at Day 7” value (baseline ordinal score 4) of the same compound?
Answer: The value was 0.40.

Question: What about the “Odds ratio (95% CI), ordinal score at Day 28” value (baseline ordinal score 4) of the same compound?
Answer: Its value is 0.62.

Question: And the mortality rate [10]?
Answer: Its mortality rate is 14.2%.

Question: What about the “patients showing clinical improvement (at least a 2 point improvement in the 7 point ordinal scale)” value [10] of the same compound?
Answer: Its value is 57%.
